One test relates to HepG2 cells. Particulars: Lin, L. et al., Cancer Res. 2006; cited from earlier work.
Test [1] relates to cultured cancer cells that express the target kinase group. Particulars: cultured cancer cells expressing the target kinase group; cited from earlier work.
In a further test the test system is various glycosidases. Particulars: free small-molecule compounds; cited from earlier work.
Test [2] deals with HepG2 liver cancer cells. In words: Hepatocellular carcinoma killing effect, cell viability assay (Cell Counting Kit-8), 96 h coculture. Type of test: cell-based, human. The method, then:
HepG2 cells (5×10^4/[…]/well) were incubated for 24 hours in a 37° C. and 5% CO2 atmosphere, and compounds 7, 15, and 20 (10 μL of a solution brought to 1 μM by dissolution in MilliQ) were then respectively added per 90 μL of the medium and the final concentration was adjusted to 100 nM. At 96 hours after the start of coculture, washing was performed 3 times with the medium component and 10 μL of Cell Counting Kit-8 (Dojindo, Kumamoto, Japan) was added to the cell culture medium; incubation was carried out for 1.5 hours in a 37° C. and 5% CO2 atmosphere; and the viable cell percentage was quantitated by measurement of the absorbance at 450 nm. A 100 nM 5-fluorouracil solution (5-FU) was used as a control agent (FIG. 11).
With reference to the preceding experimental results (FIG. 11), an evaluation of the dose dependence and a determination of the IC50 value were performed for the antitumor effect of the inhibitor 7-bearing, phospholipid-coated fluorescent nanoparticles and the inhibitor 15-bearing, phospholipid-coated fluorescent nanoparticles, which had been confirmed to have a significant inhibitory activity on cancer cell growth versus the 5-FU comparative control agent. […]
(In general: Tetrazolium assays rely on reduction of a dye to a coloured formazan, in cell work by metabolically active cells.)

For test [3], the system named is HepG2 liver cancer cells. In words: Hepatocellular carcinoma killing action of sorafenib derivative 32, cell viability assay, 48 h coculture. In kind it is cell-based. As to conditions: Homo sapiens; HepG2, 48 hours, small molecule not carried on nanoparticles. Here is the method:
At 48 hours after the start of coculture, washing was performed 3 times with the medium component and 10 μL of Cell Counting Kit-8 (Dojindo, Kumamoto, Japan) was added to the cell culture medium; incubation was carried out for 1.5 hours in a 37° C. and 5% CO2 atmosphere; and the cancer cell viability was quantitated by measurement of the absorbance at 450 nm (FIG. 15).

Test [4] concerns MCF-7 breast cancer cells. Briefly: Breast cancer cell killing action, viability by MTA/MTT assay (Cell Counting Kit-8). In kind it is cell-based, human. Particulars: 100 μM cisplatin, MCF-7, 96 hours, microscopy. Here is the method:
Quantitation of dead cells by the MTA assay: MCF7 cells (5×10^3/100 μL/well) were incubated for 24 hours in a 37° C. and 5% CO2 atmosphere, and QD-anchored inhibitor 7 (1 μM, 10±L/MilliQ), QD control (1 μM, 10 μL/MilliQ), compound 7 (1 μM, 10 μL/MilliQ), and cisplatin (1 mM, 10 μL/MilliQ) were then respectively added per 90 μL of the medium and the final concentration was adjusted to 100 nM (but 100 μM for the cisplatin). At 96 hours after the start of culture, washing was performed 3 times with the medium component and 10 μL of the cell culture medium was recovered. Cell Counting Kit-8 solution (Dojindo, Kumamoto, Japan) was added; incubation was carried out for 1.5 hours in a 37° C. and 5% CO2 atmosphere; and the viable cell percentage was quantitated by measurement of the absorbance at 450 nm.
Quantitation of dead cells by the MTT assay: MCF-7 cells (5×10^4/[…]/well) were incubated for 24 hours in a 37° C. and 5% CO2 atmosphere, and QD-anchored inhibitor 15 (1 μM, 10 μL/MilliQ) was then respectively added per […] of the medium and the final concentration was adjusted to 100 nM (but 100 μM for the cisplatin). […]

This is an account of results in patent US11007276B2, “Intracellular substance transport system and use thereof” (NATIONAL UNIVERSITY CORPORATION HOKKAIDO UNIVERSITY, priority 2016, dated 2021).

The term IC50 denotes the concentration that gives 50% inhibition. Consider `CNC(=O)c1cc(Oc2ccc(NC(=O)Nc3ccc(Cl)c(C(F)(F)F)c3)cc2)ccn1` [sorafenib], for which the IC50 (in the test on HepG2 cells; in test [1]) was 4.5 µM in each case.

With `CC(=O)CCCC(=O)Nc1ccc(O[C@]2(C(=O)O)CC(O)[C@@H](NC(C)=O)C([C@H](O)[C@H](O)CO)O2)c(C(F)F)c1` (stereo partly drawn) [compound 20], the “native IC50 for various glycosidases in vitro” value (shortened to “native IC50”) in the test with various glycosidases is recorded as “on the order of mM”.

For `CC(=O)CCCC(=O)Nc1ccc(O[C@@H]2OC(CO)[C@@H](O)C(O)C2NC(C)=O)c(C(F)F)c1` (stereo partly drawn) [compound 7], in the test on various glycosidases, the “native IC50” value is “on the order of mM”.

Regarding `CC(=O)CCCC(=O)Nc1ccc(O[C@@H]2OC(CO)[C@H](O)C(O)C2O)c(C(F)F)c1` (stereo partly drawn) [compound 15], the “native IC50” value with various glycosidases is “on the order of mM”.

As to `O=c1[nH]cc(F)c(=O)[nH]1` [5-FU, 5-fluorouracil], the antitumor activity result in the test with HepG2 liver cancer cells [2] (100 nM, HepG2, coculture for 96 hours) was “a significant antitumor activity was not observed”. The IC50 with HepG2 liver cancer cells [2] (Homo sapiens, HepG2, 96 hours of coculture, 5 to 100 nM) was over 0.1 µM.

`CC(=O)CCCCNC(=O)c1cc(Oc2ccc(NC(=O)Nc3ccc(Cl)c(C(F)(F)F)c3)cc2)ccn1` [compound 32]: in the test on HepG2 liver cancer cells [3], the IC50 was found to be 2.1 µM.

Consider `N.N.[Cl][Pt][Cl]` [cisplatin], for which the “floating dead cells with altered shapes” value in test [4] is “floating dead cells with altered shapes were observed”.
